Data on one compound can be found in paper PMC10771590, “Pathway crosstalk between the central metabolic and heme biosynthetic pathways in Phanerochaete chrysosporium” (Applied Microbiology and Biotechnology, 2024).

Where two headings read alike, the source gives them in different places.

Assay [1] addresses T1, recombinant PcGAPDH (rPcGAPDH) (Phanerodontia chrysosporium, UniProt Q01982).
T1 construct: 6xHis-tag (pET-30) (cleaved yes); made in house; host or cells: E. coli BL21(DE3)pLysS
As to the kind of experiment: GAPDH assay and steady-state kinetic analysis. It is filed as biochemical, Phanerochaete chrysosporium. The settings on record: rPcGAPDH. As to the method:
GAPDH assay was performed as previously described (Campanale et al. [2003]). For steady-state kinetic analysis, the reaction mixture (1 ml) contained 40 mM phosphate (pH 7.6), 5.2 μg recombinant PcGAPDH (rPcGAPDH), 40 mM triethanolamine, 5 mM NAD^+, and 0.6–2 mM glyceraldehyde 3-phosphate (GAP3). Reactions were monitored by the increase in absorbance at 340 nm (ε 6220 M^–1 cm^–1) for 1 min, and initial velocities were determined. Inhibitory experiments were done in the presence of 0–2.5 μM hemin. To examine the effect of hemin on GAPDH kinetics, PcGAPDH was incubated with either buffer (control) or hemin for 5 min prior to initiating the reaction. Kinetic parameters were determined from Lineweaver–Burk plots, and Ki values were determined from the secondary plot of each slope of the Lineweaver–Burk plots. Immediately prior to use, hemin was dissolved at 10 mM in 0.1 M NaOH and diluted with 40 mM Tris–HCl (pH 7.5).
Fig. 2 Heterologous expression of PcGAPDH and inhibitory effect of hemin on GAPDH reaction. A M, molecular weight marker; lane 1, rPcGAPDH-His-tag; lane 2, His-tag-cleaved rPcGAPDH. B Reaction mixtures containing 2.5 nM rPcGAPDH, 40 mM phosphate (pH 7.6), 40 mM triethanolamine, 5 mM NAD^+, and 0.6–2 mM GAP3. […] Inset: secondary plots of each slope of Lineweaver–Burk plots against the concentration of hemin for determining inhibition constants. C Reaction mixtures containing 2.5 nM rPcGAPDH, 40 mM phosphate (pH 7.6), 40 mM triethanolamine, 5 mM NAD^+, and 0.6 mM GAP3. Reactions were started by adding substrates followed by 5-min incubation with either buffer or 1 μM inhibitor (hemin or protoporphyrin IX, PPIX). […] All experiments were performed in triplicate. Bars indicated as mean values ± standard deviation (error bars)

In assay [2] the target is T2, rPcCS (mitochondrial citrate synthase) (Phanerodontia chrysosporium, UniProt Q0EAA7).
T2 sequence (Q0EAA7 1-446): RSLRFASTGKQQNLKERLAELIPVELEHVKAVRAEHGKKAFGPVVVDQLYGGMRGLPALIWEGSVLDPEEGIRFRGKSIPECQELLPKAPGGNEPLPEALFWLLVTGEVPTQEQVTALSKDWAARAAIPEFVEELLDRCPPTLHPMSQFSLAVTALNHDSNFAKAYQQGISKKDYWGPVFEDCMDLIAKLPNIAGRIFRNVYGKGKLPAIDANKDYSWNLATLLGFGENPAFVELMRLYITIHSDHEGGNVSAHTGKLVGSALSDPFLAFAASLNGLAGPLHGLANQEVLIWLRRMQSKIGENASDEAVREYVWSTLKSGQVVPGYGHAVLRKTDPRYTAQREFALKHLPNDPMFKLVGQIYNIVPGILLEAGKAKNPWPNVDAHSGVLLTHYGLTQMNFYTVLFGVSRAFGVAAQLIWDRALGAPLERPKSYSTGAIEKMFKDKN
As to the kind of experiment: CS assay (DTNB method) and steady-state kinetic analysis. It is filed as biochemical, Phanerochaete chrysosporium. The settings on record: for Ki: 0–2.5 μM hemin. As for the experimental part: CS was assayed by the 5, 5′-dithiobis-2-nitrobenzoic acid (DTNB) method, as described previously (Srere et al. [1963]). […] CS catalyzes the reaction of OAA with AcCoA, generating citrate and CoA. Thus, reactions were monitored by the amount of released CoA, which was followed at 412 nm (ε 13 600 M^–1cm^–1) by the formation of 2-nitro-5-mercaptobenzoic acid, via the reaction of CoA with DTNB. Reactions were monitored for 1 min, and initial velocity was determined. […] Inhibition studies were carried out in the presence of 0–2.5 μM hemin as described above. Kinetic parameters were determined from Lineweaver–Burk plots, and Ki values were determined from the secondary plot of the slopes of the Lineweaver–Burk plots. Hemin and OAA solutions were prepared immediately prior to use.
Fig. 5 Inhibitory effect of hemin on PcCS reaction. […] Reaction mixtures contained 1.5 nM rPcCS, 40 mM Tris-HCl (pH 8.5), and 120 μM DTNB. Fixed substrate was added at 12 μM and variable substrate at 3–12 μM. […] Insets: secondary plots of each slope of Lineweaver–Burk plots against the concentration of hemin for determining inhibition constants.

A further assay deals with T3, pig CS (Sus scrofa, UniProt P00889).
T3 sequence (P00889 28-464): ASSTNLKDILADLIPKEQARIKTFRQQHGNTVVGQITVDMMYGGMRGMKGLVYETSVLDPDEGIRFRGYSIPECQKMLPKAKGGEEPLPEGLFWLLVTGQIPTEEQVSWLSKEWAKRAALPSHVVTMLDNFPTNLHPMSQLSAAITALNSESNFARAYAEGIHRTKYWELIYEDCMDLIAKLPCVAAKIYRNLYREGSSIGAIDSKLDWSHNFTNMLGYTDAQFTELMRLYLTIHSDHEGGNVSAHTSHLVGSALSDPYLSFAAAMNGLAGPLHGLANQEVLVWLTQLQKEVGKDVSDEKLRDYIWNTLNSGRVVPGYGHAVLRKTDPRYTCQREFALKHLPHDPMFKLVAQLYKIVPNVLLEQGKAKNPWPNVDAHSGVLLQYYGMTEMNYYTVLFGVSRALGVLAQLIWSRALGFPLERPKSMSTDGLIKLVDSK
As to the kind of experiment: Inhibitory effect of hemin on pig CS (SsCS) reaction. In kind it is biochemical. The settings on record: 0–5.7 µM hemin, incubated 0 or 60 min at 4 °C (Supplemental Fig. S2). An excerpt:
One heme-responsive-motif (HRM) was found in PcCS, which could be a possible heme-binding site (Lathrop and Timko [1993]; Zhang and Guarente [1995]; Ishikawa et al. [2005]; Yamanaka et al. [2003]). From the alignment analysis, only certain fungi contain HRM (CP motif) in their CSs (Supplemental Fig. S1). No mammalian CS contains HRM (Supplemental Fig. S1). […] Furthermore, the His residue corresponding to His^347 in PcCS was conserved in either mammalian or fungal CSs. Combining all the data, the heme-binding site is concluded to be His^347 of PcCS.
Concentration of hemin (nM)
Figure S2 Inhibitory effect of hemin on SsCS reaction. Reaction mixtures containing
1.5 nM SsCS, 40 mM Tris/HCl (pH 8.5) and 0, 0.5, 1.2 and 5.7 µM hemin were incubated […]

T1 sequence (Q01982 whole entry): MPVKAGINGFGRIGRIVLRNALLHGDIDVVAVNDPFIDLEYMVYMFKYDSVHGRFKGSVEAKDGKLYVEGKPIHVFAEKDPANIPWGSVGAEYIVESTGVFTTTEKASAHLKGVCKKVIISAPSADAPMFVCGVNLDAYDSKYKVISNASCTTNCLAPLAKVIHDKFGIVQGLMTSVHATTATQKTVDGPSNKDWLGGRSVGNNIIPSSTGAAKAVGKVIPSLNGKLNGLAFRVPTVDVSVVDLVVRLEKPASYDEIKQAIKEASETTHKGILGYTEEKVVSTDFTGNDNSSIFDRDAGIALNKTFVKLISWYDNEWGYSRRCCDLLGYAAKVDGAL

One may read the Ki as a dissociation constant, usually derived from enzyme kinetics or from competition with a known ligand. As for `C=CC1=C(C)c2cc3[nH]c(cc4nc(cc5[nH]c(cc1n2)c(C)c5CCC(=O)O)C(CCC(=O)O)=C4C)c(C)c3C=C.[Fe+3]` [hemin], the “inhibitory pattern (steady-state analysis)” value in assay [1] (GAP3 as variable substrate) was “mixed type”. The Ki in assay [1] (pH 7.6, 5 mM NAD+, 0.6–2 mM GAP3, 0–2.5 μM hemin, read-out: Ki (inhibition constant from secondary plot)) came out at 1 µM; in assay [2] (read-out: Ki AcCoA, rPcCS, pH 8.5, AcCoA as variable substrate) it was 5.8 µM; in assay [2] (read-out: Ki OAA, rPcCS, pH 8.5, OAA as variable substrate), 8.7 µM. For the same compound, in assay [2] (hemin on PcCS versus inhibition constants larger than 0.1 mM), the “inhibitory effect relative to reported inhibitors of other eukaryotic CSs” value is listed as 10 times. Further, the “mode of inhibition for AcCoA” value in assay [2] (rPcCS, double-reciprocal plots) is recorded as “competitive inhibitor”. Moreover, the “mode of inhibition for OAA” value in assay [2] (rPcCS, double-reciprocal plots) was “non-competitive inhibitor”. Also, on pig CS, the “effect on pig CS activity” value is “inhibited”.
